The text below walks through data of PMC7701510, “Identification of HN252 as a potent inhibitor of protein phosphatase PPM1B” (Journal of Cellular and Molecular Medicine, 2020).

One assay concerns the target T1, PPM1B-K170A (Homo sapiens, UniProt O75688, K170A).
T1 construct: inferred from pET-28a vector and Ni-NTA purification; made in house; host or cells: Escherichia coli BL21
T1 sequence (O75688 1-479 K170A): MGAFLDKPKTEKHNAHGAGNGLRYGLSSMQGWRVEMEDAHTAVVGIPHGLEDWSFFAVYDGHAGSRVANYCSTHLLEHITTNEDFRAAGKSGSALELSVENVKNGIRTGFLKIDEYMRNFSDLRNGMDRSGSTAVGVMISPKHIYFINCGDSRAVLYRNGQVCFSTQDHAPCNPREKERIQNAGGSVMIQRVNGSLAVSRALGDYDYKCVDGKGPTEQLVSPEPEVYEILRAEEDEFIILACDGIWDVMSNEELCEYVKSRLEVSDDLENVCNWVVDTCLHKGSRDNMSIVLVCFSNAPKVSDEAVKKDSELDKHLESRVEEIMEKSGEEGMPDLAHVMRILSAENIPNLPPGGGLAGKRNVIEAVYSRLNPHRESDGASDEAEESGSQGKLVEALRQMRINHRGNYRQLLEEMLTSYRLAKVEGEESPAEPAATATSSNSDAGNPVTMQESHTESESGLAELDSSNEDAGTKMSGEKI
Briefly: pNPP hydrolysis assay with PPM1B mutant. The note with it: pNPP substrate, pH 7.0, 37°C. It counts as biochemical. The procedure: Escherichia coli BL21 strain was transformed with pET‐28a bacterial expression vector harbouring PPM1B and its mutants. ^17 The fusion proteins were induced to be expressed with 0.5 mM isopropyl‐β‐D‐thiogalactoside (IPTG) and purified from bacterial lysate by Ni‐NTA chromatographic matrices (Qiagen) and AKTA FPLC (GE Healthcare Life Sciences) using a Superdex Increase 200 column.
The kinetic assays of PPM1B were carried out at 37°C in 0.1 M acetic acid buffer (50 mM Tris, 40 mM Mn^2+, pH 7.0). The p‐nitrophenyl phosphate (pNPP, Sigma) was used as the substrate which could be conveniently measured at 405 nm. Reactions were started by addition of pNPP to a reaction mixture containing PPM1B (0.4 μM PPM1B, final concentration) and various concentrations of HN252 and stopped by addition of 0.5 M EDTA (pH 10.0) after an appropriate time. The Km value of PPM1B towards pNPP hydrolysis (3.6 mM for pNPP) was used to determine the IC50. The IC50 values, the inhibition constant Ki and inhibition pattern were evaluated as previously described. ^18 The kinetic assays of HN252 towards to other protein phosphatases were carried out as previously described. ^19

A further assay has as its target T2, PPM1F (Homo sapiens, UniProt P49593).
T2 sequence (P49593 1-454): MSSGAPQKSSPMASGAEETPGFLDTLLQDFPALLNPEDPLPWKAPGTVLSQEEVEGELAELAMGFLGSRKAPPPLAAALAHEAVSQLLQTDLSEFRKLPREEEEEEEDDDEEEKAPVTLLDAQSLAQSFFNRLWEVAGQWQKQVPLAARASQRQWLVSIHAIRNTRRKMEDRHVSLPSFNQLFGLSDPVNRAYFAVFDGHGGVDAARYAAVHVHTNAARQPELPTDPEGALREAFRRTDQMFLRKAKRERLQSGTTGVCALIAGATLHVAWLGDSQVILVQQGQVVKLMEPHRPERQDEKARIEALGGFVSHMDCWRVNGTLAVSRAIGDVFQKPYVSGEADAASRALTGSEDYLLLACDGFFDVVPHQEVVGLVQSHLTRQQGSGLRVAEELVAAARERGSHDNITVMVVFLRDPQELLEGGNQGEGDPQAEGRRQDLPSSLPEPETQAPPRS
Description: pNPP hydrolysis phosphatase assay (selectivity panel). It counts as biochemical. Conditions: pNPP as substrate.

The next assay concerns the target T3, PPM1A (Homo sapiens, UniProt P35813).
T3 sequence (P35813 1-382): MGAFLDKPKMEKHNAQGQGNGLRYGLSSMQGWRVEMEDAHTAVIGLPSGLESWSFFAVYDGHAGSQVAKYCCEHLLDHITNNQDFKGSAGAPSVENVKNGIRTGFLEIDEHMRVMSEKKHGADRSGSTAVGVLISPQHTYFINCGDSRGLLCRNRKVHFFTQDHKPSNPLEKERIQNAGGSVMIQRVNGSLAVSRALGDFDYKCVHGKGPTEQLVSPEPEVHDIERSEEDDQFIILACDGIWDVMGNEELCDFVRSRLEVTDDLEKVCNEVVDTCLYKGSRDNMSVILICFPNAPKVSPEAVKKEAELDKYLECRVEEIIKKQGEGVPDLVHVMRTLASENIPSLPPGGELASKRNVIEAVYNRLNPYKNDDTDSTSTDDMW
The assay is described as above. It is filed as biochemical.

In the next assay the target is YPH (Yersinia enterocolitica, UniProt P15273). It counts as biochemical.
A further assay relates to HL7702 cells. Briefly: Western blot of protein phosphorylation after HN252 treatment. It counts as cell-based. The procedure:
HL7702, COS7, PC‐3 and HCT116 cells were purchased from the Cell Bank of the Shanghai Institute for Biological Sciences, Chinese Academy of Science. HCT116, COS7 and PC3 cells were cultured in DMEM (Gibco); HL7702 cells were cultured in RPMI 1640 medium (Gibco). All media were supplemented with 10% foetal bovine serum (Biological Industries), 100 IU penicillin and […] streptomycin at 37°C in a humidified incubator with 5% CO2.
(In general: In western blotting, separated proteins are transferred to a membrane and probed.)

The mark [1] stands for this setting: immunoblotting, HN252 5 μM, 2 h.

Entries after “also recorded” stand apart in the source; their conditions may differ.

Chain of YPH (P15273 163-468 limits assumed): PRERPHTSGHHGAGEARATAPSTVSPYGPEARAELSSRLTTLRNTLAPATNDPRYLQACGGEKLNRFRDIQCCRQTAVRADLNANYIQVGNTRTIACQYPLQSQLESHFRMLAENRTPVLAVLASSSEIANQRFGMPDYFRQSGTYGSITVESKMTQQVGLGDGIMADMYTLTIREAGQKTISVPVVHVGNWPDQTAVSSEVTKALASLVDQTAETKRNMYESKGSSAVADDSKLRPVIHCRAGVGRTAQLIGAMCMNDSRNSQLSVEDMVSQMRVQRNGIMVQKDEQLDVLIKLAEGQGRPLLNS

Broadly, the IC50 is the concentration needed to halve the response being measured. High values mean weaker potency, low ones greater potency. Consider `Nc1cc(-c2ccc(-c3ccc(O)c(O)c3)cc2)ccc1C(=O)O` [HN252], for which the IC50 stood at 30.1 ± 5.7 µM against PPM1B-K170A, 30.6 ± 4.05 µM at PPM1F, 0.72 ± 0.22 µM against PPM1A (pNPP as substrate) and 77.2 ± 7.95 µM against YPH. The inhibition pattern entry against PPM1A (Lineweaver-Burk plot, pNPP hydrolysis, pH 7.0, 37°C, 0.4 μM PPM1A) was “non-competitive inhibition; also recorded: non‐competitive inhibitor”. Also, the “phosphorylation of JNK” value with HL7702 cells (setting [1]) is “up‐regulated”. The “phosphorylation of β-catenin” value in the assay on HL7702 cells (setting [1]) is given as “enhanced phosphorylation”. The “phosphorylation of AMPKα, CDK2 and p38” value in the assay with HL7702 cells (increasing concentration of HN252, 2 h) is reported as “dramatically increased”.
